In the supplement of paper PMC10307832:

How the values were obtained:
Assay in all cases: relative viability (nuclei count vs DMSO), 5 days (fraction); higher = more cells survive
NCI-H1793 = test system: NCI-H1793
Summary of the method: (§1)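 Values are medians from duplicate plates. Each reflects relative viability, defined as the nuclei count of treated wells over that of vehicle wells. Lung cancer cell lines in 1536-well plates were pin-tool dosed one day after seeding with one drug alone or with a fixed anchor-drug dose plus five library-drug doses (not always all listed) in √10 steps, then fixed, stained and imaged at 4× after 5 days.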

NCI-H1944 = test system: NCI-H1944
Summary of the method: as §1

NCI-H2009 = test system: NCI-H2009
Summary of the method: as §1

NCI-H2023 = test system: NCI-H2023
Summary of the method: as §1

NCI-H2085 = test system: NCI-H2085
Summary of the method: as §1

NCI-H2228 = test system: NCI-H2228
Summary of the method: as §1

NCI-H2347 = test system: NCI-H2347
Summary of the method: as §1

NCI-H2405 = test system: NCI-H2405
Summary of the method: as §1

NCI-H3122 = test system: NCI-H3122
Summary of the method: as §1

PC-14 = test system: PC-14
Summary of the method: as §1

SW 1573 = test system: SW 1573
Summary of the method: as §1

## CCNC(=O)c1noc(-c2cc(C(C)C)c(O)cc2O)c1-c1ccc(CN2CCOCC2)cc1 [Luminespib] + Nc1nc2[nH]cc(CCc3ccc(C(=O)N[C@@H](CCC(=O)O)C(=O)O)cc3)c2c(=O)[nH]1 [Pemetrexed] (partner 0.2 µM)
NCI-H1793; first compound 0.02 µM
  relative viability: 0.294
NCI-H1793; first compound 0.06325 µM
  relative viability: 0.122
NCI-H1793; first compound 0.2 µM
  relative viability: 0.119
NCI-H1944; first compound 0.002 µM
  relative viability: 0.636
NCI-H1944; first compound 0.006325 µM
  relative viability: 0.602
NCI-H1944; first compound 0.02 µM
  relative viability: 0.477
NCI-H1944; first compound 0.06325 µM
  relative viability: 0.258
NCI-H1944; first compound 0.2 µM
  relative viability: 0.149
NCI-H2009; first compound 0.002 µM
  relative viability: 1.16
NCI-H2009; first compound 0.006325 µM
  relative viability: 0.973
NCI-H2009; first compound 0.02 µM
  relative viability: 1.17
NCI-H2009; first compound 0.06325 µM
  relative viability: 0.901
NCI-H2009; first compound 0.2 µM
  relative viability: 0.0692
NCI-H2023; first compound 0.002 µM
  relative viability: 0.28
NCI-H2023; first compound 0.006325 µM
  relative viability: 0.244
NCI-H2023; first compound 0.02 µM
  relative viability: 0.0961
NCI-H2023; first compound 0.06325 µM
  relative viability: 0.071
NCI-H2023; first compound 0.2 µM
  relative viability: 0.0739
NCI-H2085; first compound 0.002 µM
  relative viability: 0.908
NCI-H2085; first compound 0.006325 µM
  relative viability: 0.893
NCI-H2085; first compound 0.02 µM
  relative viability: 0.698
NCI-H2085; first compound 0.06325 µM
  relative viability: 0.309
NCI-H2085; first compound 0.2 µM
  relative viability: 0.261
NCI-H2228; first compound 0.002 µM
  relative viability: 0.346
NCI-H2228; first compound 0.006325 µM
  relative viability: 0.405
NCI-H2228; first compound 0.02 µM
  relative viability: 0.257
NCI-H2228; first compound 0.06325 µM
  relative viability: 0.079
NCI-H2228; first compound 0.2 µM
  relative viability: 0.136
NCI-H2347; first compound 0.002 µM
  relative viability: 0.402
NCI-H2347; first compound 0.006325 µM
  relative viability: 0.404
NCI-H2347; first compound 0.02 µM
  relative viability: 0.426
NCI-H2347; first compound 0.06325 µM
  relative viability: 0.42
NCI-H2347; first compound 0.2 µM
  relative viability: 0.317
NCI-H2405; first compound 0.002 µM
  relative viability: 1.08
NCI-H2405; first compound 0.02 µM
  relative viability: 0.915
NCI-H2405; first compound 0.06325 µM
  relative viability: 0.183
NCI-H2405; first compound 0.2 µM
  relative viability: 0.179
NCI-H3122; first compound 0.002 µM
  relative viability: 0.203
NCI-H3122; first compound 0.006325 µM
  relative viability: 0.182
NCI-H3122; first compound 0.02 µM
  relative viability: 0.184
NCI-H3122; first compound 0.06325 µM
  relative viability: 0.135
NCI-H3122; first compound 0.2 µM
  relative viability: 0.111
PC-14; first compound 0.002 µM
  relative viability: 0.148
PC-14; first compound 0.006325 µM
  relative viability: 0.175
PC-14; first compound 0.02 µM
  relative viability: 0.132
PC-14; first compound 0.06325 µM
  relative viability: 0.0853
PC-14; first compound 0.2 µM
  relative viability: 0.0503
SW 1573; first compound 0.002 µM
  relative viability: 0.818
SW 1573; first compound 0.006325 µM
  relative viability: 0.898
SW 1573; first compound 0.02 µM
  relative viability: 0.189
SW 1573; first compound 0.06325 µM
  relative viability: 0.0968
SW 1573; first compound 0.2 µM
  relative viability: 0.0903
